Data as given in US20250179167A1, “IL-6 INHIBITOR AS TREATMENT FOR NEPHROPATHY” (YALE UNIVERSITY, priority 2022, published 2025).

What was measured:
diabetic CD-1 mice = assay: Wnt inhibitor (LGK974) treatment in diabetic CD-1 mice, renal histology, GR and β-catenin; format: in vivo, mouse
Procedure: FIG. 24A-24J show inhibition of Wnt signaling abolished the fibrogenic phenotype in mice. (FIG. 24A) Immunohistochemical analysis of -catenin expression in the kidneys of control and diabetic CD-1 and C57BL/6 mice. n=8 biologically independent mice/group combined from two independent experiments were evaluated. Scale bar 50 μm. Representative images are shown; original magnification 200×. (FIG. 24B) Relative mRNA expression determined by qRT-PCR of Axin2, Tcf and fibronectin, in kidneys of control and diabetic CD-1 and C57BL/6 mice. n=6 biologically independent mice/group combined from two experiments were evaluated. Expression was normalized to the internal control 18S. (FIG. 24C) Schematic diagram representing the treatment protocol of Wnt inhibitor (LGK974; 5 mg/kg body weight) in diabetic CD-1 mice and (FIG. 24D) in UUO mice. (FIG. 24E) Masson trichrome and Sirius red staining in the kidneys of diabetic and Wnt inhibitor-treated diabetic CD-1 mice. Representative images (original magnification 300×) are shown. Relative area of fibrosis (%) and relative collagen deposition (%) were measured using the ImageJ program. n=8 biologically independent mice/group combined from two experiments were evaluated. Scale bar 50 μm. (FIG. 24F) Masson trichrome and Sirius red staining in the kidneys of UUO and Wnt inhibitor-treated UUO mice. Representative images (original magnification 300×) are shown. Relative area of fibrosis (%) and relative collagen deposition (%) were measured using the ImageJ program. n=8 biologically independent mice/group combined from two experiments were evaluated. Scale bar 50 μm. (FIGS. 24G-24H) GR protein levels in CD31-positive cells were analyzed by immunofluorescence in the kidneys of Wnti-treated diabetic mice and Wnti-treated UUO mice. FITC-labeled GR, rhodamine-labeled CD31 and DAPI were used. Merged images and representative pictures are shown; original magnification 300×. n=7 biologically independent mice/group combined from four experiments were evaluated. Scale bar 50 μm. (FIGS. 24I-24J) Immunohistochemical analysis of active -catenin expression in Wnti-treated diabetic mice and Wnti-treated UUO mice. n=7 biologically independent mice/group combined from three experiments were evaluated. Scale bar 30 μm. Data are mean SEM. In all panels, one-way Anova with Tukey multiple comparison post hoc test was used to calculate statistical significance. Significance—*p<0.05, **p<0.01, ***p<0.001.
A single IP dose of 200 mg/kg STZ was used to induce diabetes in CD-1 mice.
In one experiment, male mice were randomized to one of 4 groups sixteen weeks after induction of diabetes: (i) untreated, (ii) fenofibrate (100 mg/kg), (iii) simvastatin (40 mg/kg), or (iv) Wnt inhibitor (LGK974; 5 mg/kg). In each case, mice were treated for 4 weeks and compared to untreated diabetic CD-1 mice. In another experiment, male diabetic CD-1 mice were randomized into one of 3 groups: (i) untreated (vehicle), (ii) etomoxir (20 mg/kg) or (iii) C75 (15 mg/kg); in each case mice were treated (IP) three times/week for a total 4 weeks.
Morphological Evaluation. A point-counting method was utilized to evaluate the relative area of the mesangial matrix. The inventors analyzed PAS-stained glomeruli from each mouse using a digital microscope screen grid containing 540 (27×20) points. Masson's trichrome-stained images were evaluated by ImageJ software, and the fibrotic areas were estimated.
Sirius red staining. Deparaffinized sections were incubated with picrosirius red solution for 1 hour at room temperature. The slides were washed twice with acetic acid solution for 30 seconds per wash. The slides were then dehydrated in absolute alcohol three times, cleared in xylene, and mounted with a synthetic resin. Sirius red staining was analyzed using ImageJ software, and fibrotic areas were quantified.
Immunohistochemistry. […]

[1] = tested on: isolated endothelial cells; assay: Western blot in isolated endothelial cells from Wnt inhibitor-treated diabetic mice; format: in vivo, mouse; details: isolated ECs from Wnt inhibitor-treated diabetic mice
Source text: Western blot analysis of Snail1, PPARα, active-β-catenin, and HIF1α proteins in isolated endothelial cells. […] Densitometry calculations are combined from three independent experiments Data are mean±SEM. One-way Anova with Tukey multiple comparison post hoc test was used to calculate statistical significance. Significance—*p<0.05, **p<0.01, ***p<0.001. Isolation of endothelial cells. Endothelial cells from the kidneys of non-diabetic and diabetic mice were isolated using a standardized kit (Miltenyl Biotech, USA) by following the manufacturer's instructions. Briefly, kidneys were isolated and minced into small pieces. Using a series of enzymatic reactions by treating the tissue with trypsin and Collagenase type I solution, a single cell suspension was created. The pellet was dissolved with CD31 magnetic beads and the CD31-labelled cells were separated on a magnetic separator. The cells were further purified on a column. Cell number was counted by hemocytometer and cells were plated on 0.1% gelatin coated Petri dishes. Cell purity was measured by flow cytometry (BD FACSDiva) using PE-conjugated CD31 (BDB553373) (1:100) and FITC-conjugated CD45 (BDB553079) (1:100), both from Becton Dickinson (USA). Western blot. Protein lysates were boiled in sodium dodecyl sulfate (SDS) sample buffer at 94′C for 5 min. […]

Cc1cc(-c2ncc(CC(=O)Nc3ccc(-c4cnccn4)cn3)cc2C)ccn1 [LGK974]
ECM deposition (diabetic CD-1 mice; 5 mg/kg): greatly diminished
collagen accumulation (diabetic CD-1 mice; 5 mg/kg): greatly diminished
glomerulosclerosis (diabetic CD-1 mice; 5 mg/kg): greatly diminished
relative area of fibrosis (diabetic CD-1 mice; 5 mg/kg): greatly diminished
level of β-catenin (diabetic CD-1 mice; kidney immunohistochemistry): suppressed the level of β-catenin
endothelial GR (diabetic CD-1 mice; kidney, GR in CD31-positive cells): substantially restored endothelial GR
Snail1, HIF1α and PPARα proteins [1]: A similar effect was observed
